Experimental data from US20150135829A1, “Levitation of Materials in Paramagnetic Ionic Liquids” (Presidents and Fellows of Harvard College, priority 2012, published 2015).

How the values were obtained:
Assay type in all cases: physicochemical
[1] = Density and magnetic susceptibility of paramagnetic ionic liquids from MagLev levitation height of density standard beads; details: for ρ (density) / χ (magnetic susceptibility): calculated from levitation height vs density of standard beads (Mirica et al. JACS 2009 method); for Accessible Density Range: range of densities that can be levitated in MagLev
Procedure: The density of a diamagnetic object was determined, from its levitation height, by suspending the object in a container filled with paramagnetic ionic liquid and placed the container between two NdFeB magnets oriented with like poles facing each other (see FIG. 5). Before using the paramagnetic ionic liquids as liquids for density based measurement using Maglev, the density and magnetic susceptibility of each paramagnetic ionic liquid was first determined (examples shown in FIG. 6). These properties can be calculated from a plot of the levitation height of objects with known density versus their density using previously disclosed methods. See, e.g., Mirica et al. JACS, 2009, 10049. See also, FIGS. 7-9, Table 1.

[2] = Thermal stability by thermal gravimetric analysis (TGA)
Procedure: The change in weight as a function of temperature was monitored by heating the sample from room temperature to 700° C. at a ramp rate of 10° C./min.
(§1) Except for [BMIM][FeCl4], [GlyC2][FeCl2][BMIM]2[MnCl4], all paramagnetic ionic liquids were synthesized by mixing appropriate equivalents of the halide starting materials in methanol and allowed to stir overnight. The solvent was removed in vacuo affording paramagnetic ionic liquids in nearly quantitative yield. The synthesis of [BMIM][FeCl4], [GlyC2][FeCl4] was carried out by following reported literature procedure (Satoshi Hayashi and Hiro-o Hamaguchi Chemistry Letters 2004, 33 (12) 1590-1591; Masanari Okuno and Hiro-o Hamaguchi Applied Physics Letters 2006, 89, 132506). Specifically, BMIM Cl and FeCl3 were mixed together in a 1:1 molar ratio and stirred under nitrogen atmosphere. After stirring for 10 minutes at room temperature, BMIM FeCl4 was obtained as a brown colored ionic liquid. This procedure was also used for BMIM MnCl4 except that the mixture was gently heated at 60° C. for 5 minutes. The synthesized paramagnetic ionic liquids were characterized using elemental analysis (Robertson Microlit Labs, NJ). The glass transition temperature (Tg), melting point (Tm), and decomposition temperatures (Tdec) of the synthesized paramagnetic ionic liquids were obtained respectively using dynamic scanning calorimetry (DSC), and thermal gravimetric analysis (TGA).
The thermal stability of the paramagnetic ionic liquids was measured using thermal gravimetric analysis (TGA). Most paramagnetic ionic liquids were thermally stable to at least 300° C. (see FIG. 4). The melting points (Tm), glass transition (Tg) and decomposition temperatures (Tdec) of the synthesized paramagnetic ionic liquids is provided below.

[3] = Glass transition temperature by differential scanning calorimetry (DSC); details: cooling from 20° C. to −75° C. at 10° C./minute, then heating
Procedure: as §1, with “The glass transition temperature (Tg), melting point (Tm), and decomposition temperatures (Tdec) of the synthesized paramagnetic ionic liquids were obtained respectively using dynamic scanning calorimetry (DSC), and thermal gravimetric analysis (TGA).” left out
The glass transition temperatures and melting points of the synthesized paramagnetic ionic liquids were determined using differential scanning calorimetry (DSC) (see FIG. 3). […]

| Structure (SMILES) | ρ (density) [1] [g/mL] | χ (magnetic susceptibility) [1] | Accessible Density Range [1] [g/mL] | Tdec (decomposition temperature) [2] [°C] | Tg (glass transition temperature) [3] [°C] | magnetic susceptibility (χ) [1] |
| --- | --- | --- | --- | --- | --- | --- |
| COC(=O)[C@H](C)[NH3+].COC(=O)[C@H](C)[NH3+].[Cl][Mn-2]([Cl])([Cl])[Cl] [[AlaC1]2 [MnCl4]] | 1.24 | 11.80 ×10^−4 | 0.63 to 1.86 |  |  |  |
| COC(=O)[C@H](C)[NH3+].COC(=O)[C@H](C)[NH3+].COC(=O)[C@H](C)[NH3+].[Cl][Gd-3]([Cl])([Cl])([Cl])([Cl])[Cl] [[AlaC1]3 [GdCl6]] | 1.31 | 8.24 ×10^−4 | 0.89 to 1.74 |  |  |  |
| COC(=O)[C@H](C)[NH3+].[Cl][Fe-]([Cl])([Cl])[Cl] [[AlaC1] [FeCl4]] | 1.52 | 6.62 ×10^−4 | 1.15 to 1.93 |  |  |  |
| CCCCCCCC[N+](C)(CCCCCCCC)CCCCCCCC.CCCCCCCC[N+](C)(CCCCCCCC)CCCCCCCC.CCCCCCCC[N+](C)(CCCCCCCC)CCCCCCCC.[Cl][Gd-3]([Cl])([Cl])([Cl])([Cl])[Cl] [[Aliq]3 [GdCl6]] | 0.97 | 0.55 ×10^−4 | 0.95 to 0.99 |  |  |  |
| CCCCCCCC[N+](C)(CCCCCCCC)CCCCCCCC.CCCCCCCC[N+](C)(CCCCCCCC)CCCCCCCC.CCCCCCCC[N+](C)(CCCCCCCC)CCCCCCCC.[Br][Ho-3]([Br])([Br])([Br])([Br])[Br] [[Aliq]3 [HoBr6]] | 1.08 | 1.37 ×10^−4 | 1.01 to 1.15 | 250 |  |  |
| CCCCn1cc[n+](C)c1.CCCCn1cc[n+](C)c1.CCCCn1cc[n+](C)c1.[Cl][Dy-3]([Cl])([Cl])([Cl])([Cl])[Cl] [[BMIM]3 [DyCl6]] | 1.37 | 12.37 ×10^−4 | 0.72 to 2.01 | 350 |  | 12.4 ·10^−4 |

Further lines, results first:

| ρ (density) [1] [g/mL] | χ (magnetic susceptibility) [1] | Accessible Density Range [1] [g/mL] | Tdec (decomposition temperature) [2] [°C] | Tg (glass transition temperature) [3] [°C] | magnetic susceptibility (χ) [1] | Structure (SMILES) |
| --- | --- | --- | --- | --- | --- | --- |
| 1.41 | 9.58 ×10^−4 | 0.91 to 1.91 |  |  |  | COC(=O)[C@H](C)[NH3+].COC(=O)[C@H](C)[NH3+].COC(=O)[C@H](C)[NH3+].[Cl][Dy-3]([Cl])([Cl])([Cl])([Cl])[Cl] [[AlaC1]3 [DyCl6]] |
| 1.42 | 9.70 ×10^−4 | 0.92 to 1.93 |  |  |  | COC(=O)[C@H](C)[NH3+].COC(=O)[C@H](C)[NH3+].COC(=O)[C@H](C)[NH3+].[Cl][Ho-3]([Cl])([Cl])([Cl])([Cl])[Cl] [[AlaC1]3 [HoCl6]] |
| 0.96 | 1.85 ×10^−4 | 0.90 to 100 |  |  |  | CCCCCCCC[N+](C)(CCCCCCCC)CCCCCCCC.CCCCCCCC[N+](C)(CCCCCCCC)CCCCCCCC.[Cl][Mn-2]([Cl])([Cl])[Cl] [[Aliq]2 [MnCl4]] |
| 0.95 | 1.94 ×10^−4 | 0.85 to 1.05 |  |  |  | CCCCCCCC[N+](C)(CCCCCCCC)CCCCCCCC.CCCCCCCC[N+](C)(CCCCCCCC)CCCCCCCC.CCCCCCCC[N+](C)(CCCCCCCC)CCCCCCCC.[Cl][Ho-3]([Cl])([Cl])([Cl])([Cl])[Cl] [[Aliq]3 [HoCl6]] |
| 1.23 | 3.49 ×10^−4 | 1.05 to 1.41 |  |  |  | CCCC[n+]1ccn(C)c1C.CCCC[n+]1ccn(C)c1C.CCCC[n+]1ccn(C)c1C.[Cl][Dy-3]([Cl])([Cl])([Cl])([Cl])[Cl] [[BDMIM]3 [DyCl6]] |
| 1.24 | 2.75 ×10^−4 | 1.09 to 1.37 | 300 | −40 |  | CCCC[n+]1ccn(C)c1.CCCC[n+]1ccn(C)c1.[Cl][Mn-2]([Cl])([Cl])[Cl] [[BMIM]2 [MnCl4]] |
| 1.29 | 5.40 ×10^−4 | 1.30 to 1.35 |  |  |  | CCCC[n+]1ccn(C)c1.CCCC[n+]1ccn(C)c1.CCCC[n+]1ccn(C)c1.[Cl][Ho-3]([Cl])([Cl])([Cl])([Cl])[Cl] [[BMIM]3 [HoCl6]] |
| 1.39 | 8.28 ×10^−4 | 0.96 to 1.83 |  |  |  | CCCCn1cc[n+](C)c1.[Cl][Fe-]([Cl])([Cl])[Cl] [[BMIM] [FeCl4]] |
|  |  |  |  | −69 |  | CCCCCCCCCCCCCC[P+](CCCCCC)(CCCCCC)CCCCCC.CCCCCCCCCCCCCC[P+](CCCCCC)(CCCCCC)CCCCCC.[Cl][Mn-2]([Cl])([Cl])[Cl] [[PR4]2[MnCl4]] |
